Test system: skin at abdominal treatment sites
Experiment: Clinical detection of freeze events during abdominal CoolSculpting cooling treatment after pre-treatment with cryoprotectant and mechanical stimulation
Format: in vivo, human
Details: patients, 14 total cycles at −15° C. applicator set point, 60 minute cycle, 3 cc topical, brushed for 2 minutes before cooling
Source text: This section describes an example of the clinical use of pre-treating the skin of a patient at a treatment site with mechanical stimulation in the presence of topically applied cryoprotectant prior to applying cooling treatment for affecting subcutaneous lipid-rich cells. Additional embodiments of the present technology may be practiced with features similar to or different than those described with respect to this example. Among other features of the present technology, this example illustrates that mechanical stimulation in the presence of cryoprotectant prior to cooling treatment may have utility in the prevention of freezing events or damage when cooling subcutaneous lipid-rich tissue for aesthetic or health-related reasons. Thirteen patients scheduled for abdominoplasty where offered to undergo a CoolSculpting® treatment on abdominal treatment sites. Each patient underwent two CoolSculpting® treatment sessions having a 60 minute cycle time and a −15° C. applicator temperature set point. The vacuum was set at 60 per typical recommended settings and a standard CoolSculpting® gel pad and liner were used per instructions. Six patients were assigned to a control group and had no pre-treatment performed prior to the CoolSculpting® treatment. […] Freeze events were detected using a freeze detection algorithm such as that described in U.S. Pat. No. 8,285,390.

CC(O)CO (centres unmarked) [100% PG, propylene glycol]
Probability of Freeze Event: 0%
Freeze Events (freeze detection algorithm): 0
